According to the supplement of paper PMC10307832:

How the values were obtained:
Test in all cases: relative viability (nuclei count vs DMSO), 5 days (fraction); higher = more cells survive
[1] = compound: CC[C@@H](C)CNCC(=O)N1CCC2=C([C@@H]1COC3=CC=CC(=C3)C)C=CS2 [RU-SKI 43]
Method in brief: (§1)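 Five library-drug doses spaced by √10 were pinned onto vehicle-anchored 1536-well plates of lung cancer cell lines that had been kept overnight at 37 °C. Cells went 5 days without medium change, then were fixed, permeabilised and Hoechst-stained together, imaged at 4× and counted by MetaXpress. Viability is the ratio of treated-well to vehicle-well nuclei, taken as a median over plates. Plates required control CV below 25% and at least one doubling.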

[2] = compound: CCc1c2c(nc3ccc(OC(=O)N4CCC(N5CCCCC5)CC4)cc13)-c1cc3c(c(=O)n1C2)COC(=O)[C@]3(O)CC [Irinotecan]
Method in brief: as §1

[3] = compound: Cn1cc(-c2cnc3ccc4ccc(CS(=O)(=O)NCc5ccccn5)cc4c(=O)c3c2)cn1 [MK-8033]
Method in brief: as §1

[4] = compound: CCc1c2c(nc3ccc(OC(=O)N4CCC(N5CCCCC5)CC4)cc13)-c1cc3c(c(=O)n1C2)COC(=O)[C@]3(O)CC [Irinotecan] + C[C@@H](Oc1cc(-c2cnn(C3CCNCC3)c2)cnc1N)c1c(Cl)ccc(F)c1Cl [Crizotinib] (partner 1 µM)
Method in brief: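 A single step with final 0.05% Triton X-100, 1% formaldehyde and 1 ug/ml Hoechst fixed the cells and stained nuclei 5 days after treatment. Lung cancer cell lines in 1536-well plates had been treated by pin tool the day after seeding with one drug alone or a fixed anchor-drug dose plus five library-drug doses (not always all listed) in √10 steps, and nuclei were counted on 4× images. Relative viability is the ratio of nuclei in treated wells to nuclei in vehicle wells, taken as the median of duplicate plates.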

Cell Line	relative viability ([1]; 0.1 µM)	relative viability ([1]; 0.3162 µM)	relative viability ([1]; 1 µM)	relative viability ([1]; 3.162 µM)	relative viability ([1]; 10 µM)	relative viability ([2]; 2 µM)	relative viability ([2]; 6.325 µM)	relative viability ([2]; 20 µM)	relative viability ([3]; 0.02 µM)	relative viability ([3]; 0.06325 µM)	relative viability ([3]; 0.2 µM)	relative viability ([3]; 0.6325 µM)	relative viability ([3]; 2 µM)	relative viability ([4]; first compound 2 µM)	relative viability ([4]; first compound 6.325 µM)	relative viability ([4]; first compound 20 µM)	relative viability ([2]; 0.6325 µM)	relative viability ([4]; first compound 0.6325 µM)
201T	1.03	0.973	1.08	1.05	0.981	0.996	0.467	0.33	0.967	0.974	0.9	0.976	0.963	0.888	0.52	0.388		
A549	1	1.12	1.13	0.939	0.9	0.78	0.2	0.0915	0.996	0.932	0.93	0.913	0.943	0.511	0.143	0.0565	0.943	0.621
A-427	1.09	1.02	1.12	0.94	1.03	0.844	0.299	0.21	1.05	0.963	0.877	1.06	0.96	0.243	0.179	0.214		
ABC-1	1.06	0.985	1.33	0.984	0.85	0.956	0.496	0.21	0.972	0.861	0.886	0.965	1.04	0.785	0.297	0.154		
BEN	1.05	0.987	1.25	0.991	1.05	0.73	0.345	0.338	1.04	0.913	0.963	0.934	0.939	0.52	0.252	0.391	0.735	0.928
CAL-12T	1.04	1.04	1.14	0.907	1	1.04	0.485	0.293	1.01	0.936	0.962	1.07	0.951	0.766	0.374	0.326	0.81	0.728
COR-L23	0.943	1.14	1.16	1.16	0.921	0.419	0.215	0.144	1.01	1.02	0.947	1.06	0.981	0.289	0.204	0.1	0.412	0.293
COR-L 105	1.01	0.853	0.963	1.07	0.899	0.903	0.603	0.339	1.04	0.809	0.854	0.94	0.826	0.866	0.524	0.376	0.803	0.922
Calu-6	0.948	1.21	1.07	1.08	0.966	0.59	0.247	0.133	1.02	0.906	0.923	1.06	1	0.525	0.226	0.114	0.724	0.548
ChaGo-K-1	1.02	1.02	1.1	0.988	0.946	0.7	0.295	0.261	1.03	0.907	0.941	1.01	0.873	0.849	0.47	0.402	0.759	
EBC-1	0.863	1.13	1.1	0.989	0.635	0.44	0.345	0.179	0.973	0.943	0.965	0.928	0.386	0.165	0.203	0.151	0.618	0.191
EKVX	0.873	0.971	0.977	0.994	0.965	0.804	0.504	0.261	0.993	0.858	0.906	0.935	1.03	0.81	0.244	0.232	0.711	1.08
EMC-BAC-2	1.04	0.983	1.28	0.97	0.971	0.616	0.328	0.231	1.13	0.904	0.916	1.03	0.947	0.291	0.216	0.19	0.562	0.332
EPLC-272H	1	0.905	1.07	0.857	0.915	0.665	0.282	0.243	0.923	0.745	0.85	0.991	0.76	0.163	0.2	0.264	0.419	0.504
H3255	1.02	0.995	1.11	0.995	0.885	0.684	0.392	0.379	1.06	0.853	0.942	0.794	0.942	0.539	0.383	0.251	0.743	0.741
HARA	1.06	0.959	1.05	1.06	0.84	0.618	0.308	0.245	0.97	0.769	0.87	0.806	0.944	0.204	0.208	0.161	0.612	0.705
HCC-15	1.07	1.09	1.11	1.11	0.993	0.684	0.241	0.182	1.05	0.968	0.86	1.02	0.999	0.319	0.158	0.18	0.444	0.479
HCC-44	1.05	0.972	1.09	0.933	0.969	0.915	0.409	0.331	1.05	1.02	0.949	1.01	0.957	0.491	0.27	0.273	0.718	0.578
